Assays:
Thromboxane A2 receptor = molecular target: T1, Thromboxane A2 receptor (Homo sapiens, UniProt P21731)
T1 sequence (P21731 whole entry): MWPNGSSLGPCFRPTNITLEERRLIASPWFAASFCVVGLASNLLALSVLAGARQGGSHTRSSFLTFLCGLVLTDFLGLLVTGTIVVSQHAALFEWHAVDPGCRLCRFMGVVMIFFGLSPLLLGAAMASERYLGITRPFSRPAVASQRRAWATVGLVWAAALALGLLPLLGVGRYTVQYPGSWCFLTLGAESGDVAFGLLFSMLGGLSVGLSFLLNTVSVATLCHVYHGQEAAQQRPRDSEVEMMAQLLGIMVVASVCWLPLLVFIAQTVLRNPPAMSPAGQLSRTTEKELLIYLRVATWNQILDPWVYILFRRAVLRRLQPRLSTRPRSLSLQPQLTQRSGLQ

[1] = molecular target: T2, 5-hydroxytryptamine receptor 2A (Homo sapiens, UniProt P28223); assay type: functional, cell-based
[2] = molecular target: T3, Alpha-2B adrenergic receptor (Homo sapiens, UniProt P18089)
T3 sequence (P18089 whole entry): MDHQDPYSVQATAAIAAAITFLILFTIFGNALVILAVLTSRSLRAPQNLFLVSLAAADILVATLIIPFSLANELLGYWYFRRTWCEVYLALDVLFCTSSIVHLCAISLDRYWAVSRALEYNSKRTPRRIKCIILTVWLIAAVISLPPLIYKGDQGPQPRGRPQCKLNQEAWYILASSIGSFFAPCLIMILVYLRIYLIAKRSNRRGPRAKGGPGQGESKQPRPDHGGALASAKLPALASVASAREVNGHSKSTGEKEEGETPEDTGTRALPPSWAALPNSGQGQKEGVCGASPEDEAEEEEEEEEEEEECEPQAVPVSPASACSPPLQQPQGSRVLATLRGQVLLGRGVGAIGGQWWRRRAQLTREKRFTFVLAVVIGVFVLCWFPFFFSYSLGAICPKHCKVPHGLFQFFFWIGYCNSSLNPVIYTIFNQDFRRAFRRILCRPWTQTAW

[3] = molecular target: Beta-1 adrenergic receptor (Homo sapiens, UniProt P08588); assay type: functional
[4] = molecular target: T4, Alpha-2A adrenergic receptor (Homo sapiens, UniProt P08913); assay type: functional, cell-based
T4 sequence (P08913 whole entry): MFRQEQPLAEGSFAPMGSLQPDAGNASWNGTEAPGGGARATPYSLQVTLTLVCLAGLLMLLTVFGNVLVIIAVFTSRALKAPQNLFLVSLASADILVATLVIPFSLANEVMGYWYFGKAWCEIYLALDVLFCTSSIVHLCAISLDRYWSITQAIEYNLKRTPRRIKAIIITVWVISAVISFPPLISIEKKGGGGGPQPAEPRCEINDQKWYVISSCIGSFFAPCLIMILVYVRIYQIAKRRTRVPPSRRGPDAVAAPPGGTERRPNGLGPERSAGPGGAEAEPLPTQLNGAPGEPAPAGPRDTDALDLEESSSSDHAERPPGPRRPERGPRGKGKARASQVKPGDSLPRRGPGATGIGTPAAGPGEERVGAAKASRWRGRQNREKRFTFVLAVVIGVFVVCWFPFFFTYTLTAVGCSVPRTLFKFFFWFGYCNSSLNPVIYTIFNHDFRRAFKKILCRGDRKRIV

[5] = molecular target: T5, Alpha-2C adrenergic receptor (Homo sapiens, UniProt P18825); assay type: functional
T5 sequence (P18825 whole entry): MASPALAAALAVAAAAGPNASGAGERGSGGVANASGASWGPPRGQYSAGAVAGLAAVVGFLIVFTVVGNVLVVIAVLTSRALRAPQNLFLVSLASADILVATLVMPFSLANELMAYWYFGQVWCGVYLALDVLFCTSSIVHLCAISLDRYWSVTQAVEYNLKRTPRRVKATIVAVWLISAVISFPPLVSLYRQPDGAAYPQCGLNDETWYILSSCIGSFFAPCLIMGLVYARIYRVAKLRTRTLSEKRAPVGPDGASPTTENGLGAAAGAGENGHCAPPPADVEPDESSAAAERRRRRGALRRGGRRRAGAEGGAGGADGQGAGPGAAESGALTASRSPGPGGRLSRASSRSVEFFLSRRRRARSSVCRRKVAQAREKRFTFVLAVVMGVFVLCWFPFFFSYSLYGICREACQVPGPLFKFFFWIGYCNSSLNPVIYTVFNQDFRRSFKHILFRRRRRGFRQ

[6] = molecular target: T2, 5-hydroxytryptamine receptor 2A; assay type: functional, cell-based; remark: listed apart in the source
[7] = molecular target: 5-hydroxytryptamine receptor 2B (Homo sapiens, UniProt P41595); assay type: functional, cell-based
[8] = molecular target: T6, Alpha-1A adrenergic receptor (Homo sapiens, UniProt P35348); assay type: functional, cell-based
T6 sequence (P35348 whole entry): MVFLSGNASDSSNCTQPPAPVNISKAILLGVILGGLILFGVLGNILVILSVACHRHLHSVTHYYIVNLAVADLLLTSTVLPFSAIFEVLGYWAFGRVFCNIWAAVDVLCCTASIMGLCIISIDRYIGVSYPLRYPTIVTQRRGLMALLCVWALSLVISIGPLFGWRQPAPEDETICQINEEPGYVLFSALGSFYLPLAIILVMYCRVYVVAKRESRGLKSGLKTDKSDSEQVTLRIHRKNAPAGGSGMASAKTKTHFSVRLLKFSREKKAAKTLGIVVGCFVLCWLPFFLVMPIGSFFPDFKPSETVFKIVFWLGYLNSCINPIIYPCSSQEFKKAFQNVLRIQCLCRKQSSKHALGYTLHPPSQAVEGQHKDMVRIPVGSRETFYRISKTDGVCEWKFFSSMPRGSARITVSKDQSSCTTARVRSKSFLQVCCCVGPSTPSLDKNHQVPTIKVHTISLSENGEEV

Endothelin-1 receptor = molecular target: T7, Endothelin-1 receptor (Homo sapiens, UniProt P25101)
T7 sequence (P25101 whole entry): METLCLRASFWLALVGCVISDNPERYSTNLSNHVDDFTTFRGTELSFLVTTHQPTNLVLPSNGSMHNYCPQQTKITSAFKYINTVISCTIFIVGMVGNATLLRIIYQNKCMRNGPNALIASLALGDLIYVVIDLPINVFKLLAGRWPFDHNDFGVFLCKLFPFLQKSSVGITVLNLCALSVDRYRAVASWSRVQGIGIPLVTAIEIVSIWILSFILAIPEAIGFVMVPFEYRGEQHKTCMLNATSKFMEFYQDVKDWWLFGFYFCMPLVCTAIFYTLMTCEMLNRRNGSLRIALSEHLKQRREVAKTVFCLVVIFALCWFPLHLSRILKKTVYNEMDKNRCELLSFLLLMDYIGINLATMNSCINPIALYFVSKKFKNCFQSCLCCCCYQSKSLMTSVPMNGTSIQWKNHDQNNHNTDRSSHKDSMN
Also: assay procedure not described here.

Beta-1 adrenergic receptor, sequence (P08588 whole entry): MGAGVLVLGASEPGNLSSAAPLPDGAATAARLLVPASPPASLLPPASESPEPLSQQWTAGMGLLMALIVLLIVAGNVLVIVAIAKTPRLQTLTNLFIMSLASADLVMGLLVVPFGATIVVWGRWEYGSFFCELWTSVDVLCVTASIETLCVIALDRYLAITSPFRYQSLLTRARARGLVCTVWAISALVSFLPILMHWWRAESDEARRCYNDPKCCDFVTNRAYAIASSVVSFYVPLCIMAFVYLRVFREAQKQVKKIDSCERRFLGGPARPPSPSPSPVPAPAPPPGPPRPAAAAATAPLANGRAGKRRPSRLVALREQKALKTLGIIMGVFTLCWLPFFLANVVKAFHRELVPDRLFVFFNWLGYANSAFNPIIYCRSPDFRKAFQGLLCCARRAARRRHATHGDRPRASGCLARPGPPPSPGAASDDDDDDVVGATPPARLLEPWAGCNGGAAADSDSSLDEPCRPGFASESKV
5-hydroxytryptamine receptor 2B, sequence (P41595 whole entry): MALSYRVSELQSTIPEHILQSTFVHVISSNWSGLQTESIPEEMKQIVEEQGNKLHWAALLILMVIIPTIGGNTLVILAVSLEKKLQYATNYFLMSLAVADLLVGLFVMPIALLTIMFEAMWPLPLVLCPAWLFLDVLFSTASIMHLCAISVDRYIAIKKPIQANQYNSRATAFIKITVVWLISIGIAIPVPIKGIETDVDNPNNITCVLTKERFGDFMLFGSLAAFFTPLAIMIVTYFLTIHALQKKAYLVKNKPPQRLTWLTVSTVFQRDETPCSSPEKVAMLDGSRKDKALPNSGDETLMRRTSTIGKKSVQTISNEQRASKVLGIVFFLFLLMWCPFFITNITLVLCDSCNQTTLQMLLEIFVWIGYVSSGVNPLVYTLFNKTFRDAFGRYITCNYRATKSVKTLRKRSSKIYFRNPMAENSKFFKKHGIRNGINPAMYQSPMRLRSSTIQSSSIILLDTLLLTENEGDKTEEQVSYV
T2 sequence (P28223 whole entry): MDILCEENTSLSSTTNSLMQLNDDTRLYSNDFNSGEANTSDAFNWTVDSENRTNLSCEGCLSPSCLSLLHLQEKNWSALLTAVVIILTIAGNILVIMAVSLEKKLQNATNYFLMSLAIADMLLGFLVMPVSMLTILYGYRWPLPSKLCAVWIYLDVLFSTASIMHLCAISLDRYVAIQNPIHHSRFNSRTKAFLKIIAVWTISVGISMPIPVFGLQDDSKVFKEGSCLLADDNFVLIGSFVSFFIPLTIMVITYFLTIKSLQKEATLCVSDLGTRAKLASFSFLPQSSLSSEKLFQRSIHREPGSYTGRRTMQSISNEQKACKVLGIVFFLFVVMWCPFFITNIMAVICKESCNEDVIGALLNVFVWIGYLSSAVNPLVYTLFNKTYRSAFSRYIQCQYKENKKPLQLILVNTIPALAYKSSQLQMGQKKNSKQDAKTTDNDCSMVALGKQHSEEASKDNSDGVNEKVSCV

Row | SMILES | AC50 (Thromboxane A2 receptor) [µM] | AC50 [1] [µM] | AC50 [2] [µM] | AC50 [3] [µM] | AC50 [4] [µM] | AC50 [5] [µM] | AC50 [6] [µM] | AC50 [7] [µM] | AC50 [8] [µM] | AC50 (Endothelin-1 receptor) [µM]
1 | NS(=O)(=O)c1cc2c(cc1C(F)(F)F)NC(Cc1ccccc1)NS2(=O)=O (centres undefined) [BENDROFLUMETHIAZIDE] | > 10 | > 10 | > 10 | > 10 | > 10 | > 10 | > 10 | > 10 |  | 
2 | C=CC1=C(C(=O)O)N2C(=O)[C@@H](NC(=O)/C(=N\OCC(=O)O)c3csc(N)n3)[C@H]2SC1 [CEFIXIME] |  | > 30 |  | > 30 | > 30 | > 30 | > 30 |  | > 30 | > 30
3 | CO[C@@]1(NC(=O)Cc2cccs2)C(=O)N2C(C(=O)O)=C(COC(N)=O)CS[C@@H]21 [CEFOXITIN] |  | > 30 | > 30 | > 30 | > 30 | > 30 | > 30 | > 30 |  | > 30
4 | N[C@H](Cc1cc(I)c(Oc2cc(I)c(O)c(I)c2)c(I)c1)C(=O)O [DEXTROTHYROXINE] | 21.9 |  | > 10 | > 10 | > 10 | > 10 | > 30 | 26 | > 30 | > 30
5 | C[C@@H]1C[C@H]2[C@@H]3C[C@H](F)C4=CC(=O)C=C[C@]4(C)[C@@]3(F)[C@@H](O)C[C@]2(C)[C@H]1C(=O)CO [DIFLUCORTOLONE] |  | > 30 |  |  |  | > 30 | > 30 | 18 |  | 
6 | COC(=O)N[C@@H](C)CNc1nccc(-c2cn(C(C)C)nc2-c2cc(Cl)cc(NS(C)(=O)=O)c2F)n1 [ENCORAFENIB] | > 30 | > 30 | > 30 | > 30 | > 30 | > 30 | > 30 | 28 |  | 
7 | Clc1ccc2c(c1)C(c1ccccc1)=NCc1nncn1-2 [ESTAZOLAM] | > 30 |  | > 10 | > 10 | > 10 | > 10 |  | > 10 | > 30 | 
8 | Clc1ccc(C(Cn2ccnc2)OCc2ccc(Sc3ccccc3)cc2)c(Cl)c1 (centres undefined) [FENTICONAZOLE] | > 30 |  | 12 | > 30 | > 30 | > 30 |  | > 30 | > 30 | > 30
9 | CCOC(=O)Nc1ccc2c(c1)N(C(=O)CCN1CCOCC1)c1ccccc1S2 [MORICIZINE] |  | > 30 | > 30 | > 30 | > 30 | > 30 | > 30 | > 30 |  | > 30
10 | CC(=O)O[C@H]1C[C@@H]2CC[C@@H]3[C@H](CC[C@@]4(C)[C@H]3C[C@H]([N+]3(C)CCCCC3)[C@@H]4OC(C)=O)[C@@]2(C)C[C@@H]1[N+]1(C)CCCCC1 [PANCURONIUM] | > 10 | > 10 | > 10 | > 10 | > 10 | > 10 | > 10 | > 10 |  | 
11 | CC1(C)C(C=C(Cl)Cl)C1C(=O)OCc1cccc(Oc2ccccc2)c1 (centres undefined) [PERMETHRIN] | > 10 | > 10 | > 10 | > 10 | > 10 | > 10 | > 10 | > 10 |  | 
12 | Cc1cc2nc3c(=O)[nH]c(=O)nc-3n(C[C@H](O)[C@H](O)[C@H](O)COP(=O)(O)O)c2cc1C [RIBOFLAVIN 5'-PHOSPHATE] | > 30 |  | > 30 | > 30 |  | > 30 |  |  | 5.1 | > 30
13 | COc1cc2nccc(Oc3ccc(NC(=O)Nc4cc(C)on4)c(Cl)c3)c2cc1OC [TIVOZANIB] | > 3 | 24 |  |  |  | > 30 | > 30 |  | 19 | 

Reference: ChEMBL document CHEMBL5291721, “A preclinical secondary pharmacology resource illuminates target-adverse drug reaction associations of marketed drugs” (Nat Commun, 2023)
